{
  "source": "patent US5393777A",
  "about": "“Deferration using anguibactin siderophore” (State of Oregon Acting by and through the State Board of …, priority 1990, dated 1995)",
  "key": {"[1]": {"conditions": "as known in the art; cited from earlier work"}, "[2]": {"experiment": "ferric iron (Fe3+) binding / affinity / formation constant", "excerpt": "Each molecule of anguibactin chelates one ferric (Fe^3+ or Fe(III)) ion. Anguibactin also binds Ga(III)."}, "calcium (Ca2+) affinity": {"experiment": "calcium (Ca2+) affinity", "assay_type": "binding", "conditions": "anguibactin"}, "ferrous (Fe2+) affinity": {"experiment": "ferrous (Fe2+) affinity", "assay_type": "binding"}, "Ga(III) binding": {"experiment": "Ga(III) binding", "conditions": "anguibactin", "procedure": "The structure of anguibactin was determined as outlined in Jalal et al., J. Am. Chem. Soc. 111:292 (1989), and shown schematically in FIG. 2. Anguibactin has a molecular weight of 348 g/mol, which is about half the molecular weight of deferoxamine (657 g/mol). Anguibactin can be regarded as a form of catechol rather than a monophenol. It has a unique structure which bears some resemblance to pyochelin. See Llinas et al., Biochemistry 12:3836 (1973). Anguibactin has been identified as ω-N-hydroxy-ω-[[2'-(2'',3''-dihydroxyphenyl)thiazolin-4'-yl]-carboxy]histamine by crystal X-ray diffraction studies of its anhydro derivative, proton and ^13 C nuclear magnetic resonance spectroscopy of its deferri and Ga(III) complex, fast-atom bombardment (FAB) mass spectrometry, and chemical degradation."}, "[3]": {"experiment": "removal of ferric ion from ferric hydroxide", "assay_type": "binding", "conditions": "aqueous, pH between 7 and 8"}, "[4]": {"experiment": "competitive binding assay, removal of Fe3+ from aerobactin", "conditions": "competitive binding assays"}, "transferrin [5]": {"tested_on": "transferrin", "experiment": "removal of Fe3+ from transferrin", "conditions": "anguibactin; competitive binding assays"}, "[6]": {"tested_on": "iron-binding proteins in the fish host", "experiment": "removal of iron from iron-binding proteins in the fish host", "conditions": "in vivo"}, "[7]": {"experiment": "removal of ferric iron from aqueous solutions"}, "[8]": {"tested_on": "human diploid fibroblast cells", "experiment": "inhibition of 59Fe uptake by normal human diploid fibroblast cells (FIG. 3)", "assay_type": "cell-based", "conditions": "59Fe-containing cell-growth medium", "procedure": "An experiment was conducted to characterize the chelation properties of anguibactin by examining its effect on iron uptake by mammalian cells in culture.\nNormal human diploid fibroblast cells were mixed with ^59 Fe-containingcell-growth medium. Samples of the dosed cells were then incubated for increasing lengths of time. After each time period, the corresponding samples were rinsed to remove any free radioiron. The rinsed cells were treated with trypsin and the lysates precipitated with trichloroacetic acid. Radioactive counting of the precipitated lysates was performed using a Beckman counter. Addition of anguibactin and subsequent assay for radioiron in otherwise identical parallel samples yielded a measure of the capacity of the siderophore present in the cell-growth medium to interrupt the uptake of radioiron by the cultured cells."}, "rat heart cells": {"tested_on": "rat heart cells", "experiment": "inhibition of iron uptake by rat heart cells", "assay_type": "cell-based", "conditions": "non-immortalized cells, data not shown"}, "[9]": {"experiment": "toxicity on injection into fish", "assay_type": "in vivo", "conditions": "injection of 400 μl anguibactin", "excerpt": "(§1) Preliminary studies indicate that anguibactin toxicity is very low."}, "[10]": {"experiment": "toxicity on injection into rabbits", "assay_type": "in vivo, rabbit", "conditions": "injection of 400 μl", "excerpt": "as §1"}, "[11]": {"experiment": "stability to acid hydrolysis", "assay_type": "physicochemical"}, "[12]": {"experiment": "excretion of radioiron (59Fe) in urine and feces", "assay_type": "in vivo, rats", "conditions": "about 10 mg incubated with 59FeCl3, subcutaneous, urine and feces over a week", "procedure": "To determine the ability to excrete chelated iron, a procedure similar to that generally used to evaluate iron chelators is employed. Trace amounts of ^59 FeCl3 are incubated in vitro with about 10 mg anguibactin and subcutaneously injected into normal subjects such as rats. Cumulative excretion of radioiron is measured during the subsequent week in urine and feces. Weak iron chelators are not able enhance ^59 Fe excretion relative to a control injected with ^59 FeCl3 only. […] Evaluation of the distribution of radioiron in urine and stool provides an indication of whether the siderophore-bound iron is removed from plasma by kidneys (urine) or by the liver followed by excretion to the bile (stool)."}, "Vibrio anguillarum": {"tested_on": "Vibrio anguillarum", "experiment": "experimental infection of salmonid fishes, iron supply by siderophore for growth of avirulent strain", "assay_type": "in vivo", "conditions": "fish infected with wild-type V. anguillarum", "excerpt": "A mutant strain of Vibrio anguillarum termed 775:Tn1-5 was produced which contained the pJM1-derivative plasmid pJHC-91 in which a transposon element Tn1 was inserted into genetic unit I. This mutant strain can grow in vitro in iron-limited media only if the supernatant from strains containing the wild-type pJM1 plasmid, and thus plenty of anguibactin, is supplied. Therefore, strains harboring the pJHC-91 plasmid must be able to transport and incorporate iron from anguibactin but are not able to produce this anguibactin itself. Strains containing the pJHC-91 plasmid are able to synthesize the pOM2 outer membrane protein."}, "toxicity, general": {"experiment": "toxicity, general", "conditions": "preliminary studies"}, "[13]": {"conditions": "theoretical; cited from earlier work"}, "transferrin [14]": {"tested_on": "transferrin", "conditions": "deferoxamine; cited from earlier work"}, "ferritin": {"tested_on": "ferritin", "conditions": "cited from earlier work"}, "hemosiderin": {"tested_on": "hemosiderin", "conditions": "cited from earlier work"}, "cytochromes": {"tested_on": "cytochromes", "conditions": "cited from earlier work"}, "hemoglobin": {"tested_on": "hemoglobin", "conditions": "cited from earlier work"}, "[15]": {"conditions": "cited from earlier work"}, "[16]": {"conditions": "cited from earlier work", "remark": "listed apart in the source"}, "[17]": {"conditions": "deferoxamine; cited from earlier work"}, "[18]": {"conditions": "in vivo; cited from earlier work"}, "[19]": {"conditions": "human, in vivo; cited from earlier work"}, "Yersinia enterocolitica": {"tested_on": "Yersinia enterocolitica", "conditions": "in some cases; cited from earlier work"}, "[20]": {"conditions": "deferoxamine; cited from earlier work", "remark": "listed apart in the source"}},
  "note": "Entries after “also recorded” stand apart in the source; their conditions may differ. Where two headings read alike, the source gives them in different places.",
  "data": [
    {"molecule": "O=C(O)CN(CCN(CC(=O)O)CC(=O)O)CC(=O)O", "note": "[EDTA]", "values": [
      {"measurement": "toxicity of calcium chelators", "setting": "[1]", "result": "relatively toxic"}
    ]},
    {"molecule": "O=C(C1CSC(c2cccc(O)c2O)=N1)N(O)CCc1c[nH]cn1", "note": "(centres unmarked) [anguibactin, ω-N-hydroxy-ω-[[2'-(2'',3''-dihydroxyphenyl)thiazolin-4'-yl]-carboxy]histamine]", "values": [
      {"measurement": "affinity for ferric ions", "setting": "[2]", "result": "extremely high"},
      {"measurement": "dependence of Fe3+ binding on pH", "setting": "[2]", "result": "dependent on pH"},
      {"measurement": "ferric (Fe3+) ions chelated per molecule", "setting": "[2]", "result": "one"},
      {"measurement": "iron chelating power compared with deferoxamine", "setting": "[2]; from competitive binding data", "result": "more powerful iron chelator than the widely used deferoxamine"},
      {"measurement": "Fe3+ binding in mildly alkaline conditions", "setting": "[2]; mildly alkaline conditions", "result": "excellent binding can be achieved"},
      {"measurement": "affinity for Ca2+ ions", "setting": "calcium (Ca2+) affinity", "result": "only a very weak affinity"},
      {"measurement": "affinity for ferrous (Fe2+) ions", "setting": "ferrous (Fe2+) affinity", "result": "only a very weak affinity; also recorded: little affinity"},
      {"measurement": "binding of Ga(III)", "setting": "Ga(III) binding", "result": "binds Ga(III)"},
      {"measurement": "binding of metals other than iron known to be essential for bacterial metabolism", "setting": "binding of other metals", "result": "does not bind any metal other than iron known to be essential for bacterial metabolism"},
      {"measurement": "removal of ferric ion from ferric hydroxide", "setting": "[3]", "result": "remove ferric ion from ferric hydroxide"},
      {"measurement": "removal of Fe3+ from other siderophores such as aerobactin", "setting": "[4]", "result": "able to remove Fe^3+ from other siderophores such as aerobactin"},
      {"measurement": "removal of Fe3+ from transferrin", "setting": "transferrin [5]", "result": "able to remove Fe^3+"},
      {"measurement": "removal of iron from transferrin and other iron-binding proteins in the fish host", "setting": "[6]", "result": "very efficient in removing iron from aqueous solution as well as from transferrin and from other iron-binding proteins in the fish host"},
      {"measurement": "removal of iron from aqueous solution", "setting": "[7]", "result": "capable of removing ferric iron from aqueous solutions, including cell-culture medium; also recorded: very efficient in removing iron from aqueous solution"},
      {"measurement": "inhibition of iron uptake by human fibroblast cells", "setting": "[8]", "result": "inhibits uptake, from a liquid medium, of iron by cultured human diploid fibroblast cells; also recorded: interrupts the flow of iron into human cells"},
      {"measurement": "inhibition of iron uptake by human fibroblast cells", "setting": "[8]; listed as Anguibactin", "result": "inhibits iron uptake by living cells"},
      {"measurement": "inhibition of iron uptake by rat heart cells", "setting": "rat heart cells", "result": "substantially the same results"},
      {"measurement": "inhibition of iron uptake by rat heart cells", "setting": "rat heart cells; listed as Anguibactin", "result": "inhibits iron uptake by living cells"},
      {"measurement": "adverse effect, fish", "setting": "[9]", "result": "no discernable adverse effect"},
      {"measurement": "adverse effect, rabbits", "setting": "[10]", "result": "no discernable adverse effect"},
      {"measurement": "cleavage by hydrochloric acid", "setting": "[11]; 6N hydrochloric acid", "result": "cleave anguibactin to 2,3-dihydroxybenzoic acid, dehydrocystine, and histamine"},
      {"measurement": "acid hydrolysis below pH 3", "setting": "[11]; environment more acidic than pH 3", "result": "undergoes acid hydrolysis to at least a partial degree"},
      {"measurement": "pH down to which the molecule remains intact", "setting": "[11]; pH", "result": "≥ 3"},
      {"measurement": "excretion of radioiron", "setting": "[12]", "result": "enhance excretion of radioiron"},
      {"measurement": "level of siderophore in blood and kidneys of infected fish", "setting": "Vibrio anguillarum", "result": "sufficient to provide iron for considerable growth of the avirulent strain"},
      {"measurement": "solubility in methanol", "setting": "solubility; methanol", "result": "freely soluble in water and methanol"},
      {"measurement": "solubility in water", "setting": "solubility", "result": "highly soluble in water"},
      {"measurement": "solubility in water", "setting": "solubility; listed as Anguibactin", "result": "freely soluble in water"},
      {"measurement": "toxicity", "setting": "toxicity, general", "result": "very low"},
      {"measurement": "toxicity", "setting": "toxicity, general; listed as Anguibactin", "result": "very low toxicity"}
    ]},
    {"molecule": "CC(=O)N(O)CCCCCNC(=O)CCC(=O)N(O)CCCCCNC(=O)CCC(=O)N(O)CCCCCN", "note": "[deferoxamine]", "values": [
      {"measurement": "capacity of binding ferric iron", "setting": "[13]", "result": "about 8.5 parts by weight"},
      {"measurement": "removal of iron from transferrin", "setting": "transferrin [14]", "result": "not readily from transferrin"},
      {"measurement": "removal of iron from ferritin", "setting": "ferritin", "result": "wrests iron from ferritin"},
      {"measurement": "removal of iron from hemosiderin", "setting": "hemosiderin", "result": "wrests iron from ferritin and hemosiderin"},
      {"measurement": "removal of iron from cytochromes", "setting": "cytochromes", "result": "substantially not at all from cytochromes"},
      {"measurement": "removal of iron from hemoglobin", "setting": "hemoglobin", "result": "substantially not at all from cytochromes and hemoglobin"},
      {"measurement": "Intravenous LD50, mice", "setting": "[15]", "result": 287, "unit": "mg/kg"},
      {"measurement": "Intravenous LD50, rats", "setting": "[16]", "result": 329, "unit": "mg/kg"},
      {"measurement": "acid hydrolysis", "setting": "[17]", "result": "prone to acid hydrolysis"},
      {"measurement": "absorption after oral administration", "setting": "[18]", "result": "poorly absorbed after oral administration"},
      {"measurement": "toxic reactions", "setting": "[19]", "result": "toxic and can cause a number of reactions, including allergic reactions: pruritis, wheals, rash, and anaphylaxis; and dysuria, gastrointestinal symptoms, diarrhea, fever, leg cramps, hypotension, and tachycardia"},
      {"measurement": "effect on susceptibility of iron-overload patients to Yersinia enterocolitica infections", "setting": "Yersinia enterocolitica", "result": "enhanced this susceptibility, resulting in generalized infections"},
      {"measurement": "excretion of radioiron", "setting": "[20]", "result": "enhance excretion of radioiron"}
    ]}
  ]
}
